Source: US10905736B2, “Ezetimibe-associated ApoA-I mimetic peptides showing enhanced synergism” (The Regents of the University of California, priority 2016, dated 2021)
Entries after “also recorded” stand apart in the source; their conditions may differ.

What was measured:
LDLR null mice [1] = assay: Plasma lysophosphatidylcholine (LysoPC) levels in LDLR null mice fed Western diet for two weeks; format: in vivo, mouse; settings: female LDLR null mice age 4-7 months, WD two weeks, Tg6F 0.06% by weight, Ezetimibe 10 mg/kg/day
Experimental: After feeding the diets for two weeks the mice were bled and plasma lipid levels, plasma levels of lysophosphatidylcholine (LysoPC), and plasma levels of Serum Amyloid A (SAA) were determined as described in Example 3 Methods. Panel A) Plasma total cholesterol levels. Panel B) The decrease in plasma cholesterol compared to WD for each treatment. Panel C) Plasma triglyceride levels. Panel D) The decrease in plasma triglycerides compared to WD for each treatment. Panel E) Plasma HDL-Cholesterol levels. Panel F) The Increase in plasma HDL-Cholesterol compared to WD for each treatment. Panel G) Plasma LysoPC 18:0 levels. Panel H) The decrease in plasma LysoPC 18:0 levels compared to WD for each treatment. Panel I) Plasma LysoPC 18:1 levels. Panel J) The decrease in plasma LysoPC 18:1 levels compared to WD for each treatment. Panel K) Plasma LysoPC 20:4 levels. Panel L) The decrease in plasma LysoPC 20:4 levels compared to WD for each treatment. Panel M) Plasma SAA levels. Panel N) The decrease in plasma SAA levels compared to WD for each treatment. The data shown are Mean±SEM. NS=Not significant.
In experiments in which Tg6F or EV or Ezetimibe were administered as single agents, the EV or Tg6F concentrate was added to WD at 0.06% by weight or Ezetimibe was added to WD to give a final dose of 10 mg/kg body weight/day. The EV or Tg6F concentrate or Ezetimibe was mixed into the diets as described (Chattopadhyay et al. (2015) Pharma. Res. Per. 3: e00154). In experiments in which the EV or Tg6F concentrates and Ezetimibe were both added to WD, each was added separately to WD at the same dose as used for the single agents, and each was mixed into the diet as described (Id.). […]
Plasma lipids, and serum amyloid A (SAA) levels were determined and LC-MS/MS was performed as described (Navab et al. (2012) J. Lipid Res. 53: 437-446; Chattopadhyay et al. (2016) J. Lipid Res. 57: 832-847; Chattopadhyay et al. (2015) Pharma. Res. Per. 3: e00154). […]

LDLR null mice [2] = assay: Plasma hydroxyeicosatetraenoic acid (HETE) levels in LDLR null mice fed Western diet for two weeks; format: in vivo, mouse; settings: female LDLR null mice age 5-8 months, n=20 per group, WD two weeks, Tg6F 0.06% of diet, Ezetimibe 10 mg/kg/day
Experimental: The plasma from the mice in FIG. 1 was analyzed for 5-HETE as described (see, e.g., Navab et al. (2012) J. Lipid Res., 53: 437-445).
Female LDLR null mice age 5-8 months (n=20 per group) were fed standard mouse chow (Chow) or a Western diet high in cholesterol and fat (WD) or were fed WD+0.06% by weight of a freeze-dried concentrate of transgenic tomatoes expressing the apoA-I mimetic peptide 6F, which was prepared as previously described (see, e.g., Chattopadhyay et al. (2015) Pharma. Res. Per. 3: e00154; Chattopadhyay et al. (2016) J. Lipid Res. 57: 832-847; PCT Pub. Nos: WO 2013/148214 (PCT/US2013/031037), WO 2015/175968 (PCT/US2015/031134)) (Tg6F), or the mice were fed WD with Ezetimibe added to give a daily dose of 10 mg/kg body weight/day (WD+Ezetimibe), or the mice were fed WD with Tg6F added at 0.06% by weight plus Ezetimibe (each added separately to the diet) to give a daily dose of Ezetimibe of 10 mg/kg body weight; the Tg6F and Ezetimibe were mixed into WD as described previously (Chattopadhyay et al. (2016) J. Lipid. Res. 57: 832-847) (Combined Formulation), or the mice were fed WD to which was added ezetimibe-associated transgenic 6F peptide (Ez-tg6F) at 0.06% Tg6F by weight containing sufficient Ezetimibe to give a daily dose of 10 mg/kg body weight/day that was prepared as described herein. Specifically, the ezetimibe-associated Tg6F peptide (Ez-Tg6F) was made by adding the ezetimibe directly to a solution of ethyl acetate 5% acetic acid that had been incubated overnight at room temperature with freeze-dried tomato powder obtained from transgenic tomatoes expressing the 6F peptide, and which had been removed to a separate vessel as described previously (see, e.g., Chattopadhyay et al. (2015) Pharma. Res. Per. 3: e00154; Chattopadhyay et al. (2016) J. Lipid. Res. 57: 832-847) prior to addition of the ezetimibe. […] After feeding the diets for two weeks, the mice were bled and total plasma cholesterol levels were determined as described (Id.). […]

For `O=C1[C@H](CC[C@H](O)c2ccc(F)cc2)[C@@H](c2ccc(O)cc2)N1c1ccc(F)cc1` [Ezetimibe, (3R,4S)-1-(4-fluorophenyl)-3-[(3S)-3-(4-fluorophenyl)-3-hydroxypropyl]-4-(4-hydroxyphenyl)azetidin-2-one], the “plasma LysoPC 18:0 levels” value (LDLR null mice [1]; FIG. 16 G-H) was “failed to significantly alter plasma levels of LysoPC 18:0”, the “plasma LysoPC 18:1 levels” value (LDLR null mice [1]; FIG. 16 I-J) was “significantly decreased plasma levels of LysoPC 18:1” and the “plasma LysoPC 20:4 levels” value (LDLR null mice [1]; FIG. 16 K-L) was “significantly reduced plasma levels of LysoPC 20:4”. The “plasma 5-HETE levels” value (LDLR null mice [2]; FIG. 7-8 / FIG. 17 G-H) was “equally effective; also recorded: significantly decreased plasma levels of 5-HETE”, the “plasma 12-HETE levels” value (LDLR null mice [2]; FIG. 9-10 / FIG. 17 I-J) was “without effect; also recorded: failed to significantly decrease plasma 12-HETE and 15-HETE levels; also recorded: did not significantly alter plasma 12-HETE or 15-HETE levels” and the “plasma 15-HETE levels” value (LDLR null mice [2]; FIG. 11-12 / FIG. 17 K-L) was “without effect; also recorded: failed to significantly decrease plasma 12-HETE and 15-HETE levels; also recorded: did not significantly alter plasma 12-HETE or 15-HETE levels”.
